Structures can show the parent of a compound that is named as a salt.
Columns and labels:
[1] = Writhing Test (analgesic effect); type: in vivo
Bradycardiac Effect = type: in vivo
Calf = test: Premedication for surgical intervention (hernia umbilicalis) in calf; type: in vivo; conditions: 0.01 mg/kg i.v., operation 20 minutes after injection
Excerpt: (§1) The following table sets forth the correlation between activity and dosage of 2-[(2-bromo-6-fluorophenyl)-imino]-imidazolidine hydrochloride: […]

Horse = test: Sedation and analgesia in horse, activity vs dosage; type: in vivo
Excerpt: as §1

Poultry = test: Sedation in poultry, activity vs dosage; type: in vivo
Excerpt: as §1

Cattle (calf) = test: Sedation and analgesia in cattle (calf), activity vs dosage; type: in vivo; conditions: for Effect: analgesia / Effect: sedation / Effect: sleep: cattle (calf)
Excerpt: as §1

Pig = test: Sedation and analgesia in pig, activity vs dosage; type: in vivo
Excerpt: as §1

[2] = Bradycardiac effect (general statement); conditions: in vivo

Compound: Clc1cccc(Cl)c1N=C1NCCN1 [2-[(2,6-Dichlorophenyl)-imino]-imidazolidine.HCl, reference compound]
- ED50 [1]: 17 µg/kg
- ED60 (Bradycardiac Effect): 10 µg/kg

Compound: Cl.Fc1cccc(Br)c1N=C1NCCN1 [2-[(2-Bromo-6-fluorophenyl)-imino]-imidazolidine hydrochloride]
- Effect: analgesia during and after the operation (Calf): good
- Effect: sedation during and after the operation (Calf): good
- Effect: analgesia (Horse; 0.03 mg/kg i.m.): no
- Effect: sedation (Horse; 0.03 mg/kg i.m.): light sedation
- Effect: analgesia (Horse; 0.03 mg/kg i.v.): slight
- Effect: sedation (Horse; 0.03 mg/kg i.v.): light sedation
- Effect: analgesia (Horse; 0.06 mg/kg i.m.): rather weaker analgesia
- Effect: sedation (Horse; 0.06 mg/kg i.m.): moderate sedation
- Effect: analgesia (Horse; 0.06 mg/kg i.v.): good
- Effect: sedation (Horse; 0.06 mg/kg i.v.): strong sedation
- Effect: analgesia (Horse; 0.07 mg/kg i.v.): good
- Effect: sedation (Horse; 0.07 mg/kg i.v.): strong sedation
- Effect: analgesia (Horse; 0.08 mg/kg i.m.): good analgesia
- Effect: sedation (Horse; 0.08 mg/kg i.m.): strong sedation
- ED50 [1]: 4 µg/kg
- ED60 (Bradycardiac Effect): 3 µg/kg
- Effect: sedation (Poultry; 2.0 mg/kg i.m.): strong sedation
- Effect: sedation (Poultry; 2.0 mg/kg p.o.): good sedation
- Effect: sedation (Poultry; 0.01-0.1 mg/kg i.m.): weak sedation
- Effect: sedation (Poultry; 0.1-0.5 mg/kg i.m.): good sedation
- Effect: sedation (Poultry; 0.5-1.0 mg/kg i.m.): very good sedation
- Effect: sedation (Poultry; 0.5-1.0 mg/kg p.o.): good sedation
- Effect: depth of sedation (Cattle (calf); calf, 0.04 mg/kg p.o.): very good depth of sedation
- Effect: rousability (Cattle (calf); calf, 0.04 mg/kg p.o.): animal cannot be roused
- Effect: analgesia (Cattle (calf); 0.006 mg/kg i.v., i.m.): no analgesia
- Effect: sedation (Cattle (calf); 0.006 mg/kg i.v., i.m.): low-level sedation
- Effect: sedation (Cattle (calf); 0.008 mg/kg i.m.): good sedation
- Effect: sleep (Cattle (calf); 0.008 mg/kg i.m.): deep
- Effect: sedation (Cattle (calf); 0.009 mg/kg i.m.): very good sedation
- Effect: sleep (Cattle (calf); 0.009 mg/kg i.m.): deep sleep
- Effect: analgesia (Cattle (calf); 0.009 mg/kg i.m., i.v. result: not total): as with i.v.
- Effect: analgesia (Cattle (calf); 0.009 mg/kg i.v.): not total
- Effect: sedation (Cattle (calf); 0.009 mg/kg i.v.): very good sedation
- Effect: sleep (Cattle (calf); 0.009 mg/kg i.v.): deep sleep
- Effect: analgesia (Cattle (calf); 0.01 mg/kg i.m.): moderate analgesia
- Effect: sedation (Cattle (calf); 0.01 mg/kg i.m.): very good sedation
- Effect: analgesia (Cattle (calf); 0.01 mg/kg i.v.): moderate analgesia
- Effect: sedation (Cattle (calf); 0.01 mg/kg i.v.): very good sedation
- Effect: analgesia (Pig; 0.01-0.03 mg/kg i.m.): weak
- Effect: sedation (Pig; 0.01-0.03 mg/kg i.m.): weak sedation
- Effect: sedation (Pig; 0.01-1.0 mg/kg i.m.): strong sedation
- Effect: analgesia (Pig; 0.03-0.06 mg/kg i.m.): rather weaker
- Effect: sedation (Pig; 0.03-0.06 mg/kg i.m.): good sedation
- Effect: analgesia (Pig; 0.06-0.1 mg/kg i.m.): good
- Effect: sedation (Pig; 0.06-0.1 mg/kg i.m.): very good sedation

Compound: Fc1cccc(Br)c1N=C1NCCN1 [2-[(2-bromo-6-fluorophenyl)-imino]-imidazolidine]
- bradycardiac effect [2]: marked bradycardiac effect
